Experimental data published in patent US20150218534A1, “MODIFIED DNA POLYMERASE” (TOYOBO CO., LTD., priority 2012, published 2015).

How the values were obtained:
482 bp of human β-globin = assay: PCR amplification of 482 bp of human β-globin with dUTP in place of dTTP; type: biochemical; parameters: key to Results of PCR in the presence of dUTP 481 bp: A: Amplified; B: Amplified (faint band); C: Not amplified; conditions: for Results of PCR in the presence of dUTP 481 bp: dTTP replaced by dUTP, 35 cycles; for PCR amplification of 482 bp with dUTP: 100% dUTP instead of dTTP (FIGS. 5 to 8)
Description: 482 bp of human β-globin was amplified to compare the amplification difference between the case of using dTTP and the case of using dUTP in PCR, and the sensitivity to dUTP was examined. For amplification, each enzyme was used after being mixed with 1 μg of a KOD antibody per U of the enzyme. For PCR, components included in KOD-Plus-Ver. 2 (produced by Toyobo Co. Ltd.) were used. General dNTPs (dATP, dTTP, dCTP, dGTP) in an amount of 0.2 mM were added to 50 μl of individual reaction solutions, and dNTPs (dATP, dUTP, dCTP, dGTP) in an amount of 0.2 mM in which dTTP was replaced by dUTP were added to 50 μl of individual reaction solutions. The reaction solutions contained 1× PCR buffer, 1.5 mM MgSO4, primers represented by SEQ ID NOs: 27 and 28 in an amount of 15 pmol for amplifying […], 10 ng of human genomic DNA (produced by Roche), and 1 U of each respective enzyme mixed with the antibody. PCR was performed using a GeneAmp PCR system 9700 (produced by Applied Biosystems) on the following schedule: preliminary reaction at 94° C. for 2 minutes, followed by 35 cycles, each cycle consisting of 98° C. for 10 seconds and 68° C. for 1 minute. After the completion of each individual reaction, each of the resulting reaction solutions was analyzed using to a DNA-1000 kit for MultiNA (produced by Shimadzu Corporation) to confirm amplified DNA fragments. FIGS. 5 and 6 show the results.

[1] = tested on: human genomic DNA (about 1.3 kb) with dUTP added; assay: Evaluation of uracil (dUTP) sensitivity by PCR with dUTP added to the reaction; type: biochemical; conditions: for Evaluation of dUTP resisitance on a 11-point scale: closer to 0 = stronger sensitivity to dUTP, closer to 10 = lower sensitivity, summary of Examples 1 to 3; for dUTP resistance: dUTP added to 0.5, 5, 50, 100, 200 μM, about 1.3 kb, 30 cycles, 1 U enzyme; for PCR products on addition of dUTP: some amount of dUTP added
Outline: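 Uracil sensitivity is judged by whether a roughly 1.3 kb band still appears on ethidium bromide-stained agarose gel. Tolerated dUTP was tested at final 0.5 to 200 μM (0.5, 5, 50, 100, 200 μM), using 10 ng human genomic DNA, 1 U enzyme, 0.2 mM dNTPs and 1.5 mM MgSO4 in KOD-Plus-Ver. 2 buffer. Cycling: 94° C for 30 s, then 30 cycles of 98° C/65° C/68° C.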

| Molecule | Results of PCR in the presence of dUTP 481 bp (482 bp of human β-globin) | Evaluation of dUTP resisitance on a 11-point scale [1] | dUTP resistance [1] [µM] | PCR amplification of 482 bp with dUTP (482 bp of human β-globin) | PCR products on addition of dUTP [1] |
| --- | --- | --- | --- | --- | --- |
| KOD H147E/P115Δ: KOD H147E (exo(+)) mutant lacking P115 | C | 0 | 0 | – | – |
| KOD N210D/P115Δ: KOD N210D (exo(−)) mutant lacking P115 | C | 0 | 0 | – | – |
| KOD I142R/Y7A/P36H: KOD I142R (exo(−)) mutant with Y7A and P36H | A | 8 | >200 | – | – |
| KOD H147E/Y7A/P36R: KOD H147E (exo(+)) mutant with Y7A and P36R | A | 8 | >200 | – | – |
| KOD I142R/Y7A/V93K: KOD I142R (exo(−)) mutant with Y7A and V93K | A | 10 | >200 | – | – |
| KOD P115Δ: modified KOD DNA polymerase lacking P115 | C | 0 | 0 | – | – |
| KOD I142R/P36H: KOD I142R (exo(−)) mutant with P36H | A | 8 | >200 | – | – |
| KOD D141A/E143A/Y7A/P36R: KOD D141A/E143A (exo(−)) mutant with Y7A and P36R | A | 10 | >200 | – | – |
| KOD I142R/P36R: KOD I142R (exo(−)) mutant with P36R | A | 8 | >200 | – | – |
| KOD H147E/P36R/V93K: KOD H147E (exo(+)) mutant with P36R and V93K | C | 0 | 0 | – | – |
| KOD Y7A/P36R: modified KOD DNA polymerase with Y7A and P36R | A | 7 | >200 | allowed for PCR amplification | – |
| KOD N210D/V93R: KOD N210D (exo(−)) mutant with V93R | A | 8 | >200 | – | – |
| KOD N210D/Y7A/P36H: KOD N210D (exo(−)) mutant with Y7A and P36H | A | 10 | >200 | – | – |
| KOD D141A/E143A/V93K: KOD D141A/E143A (exo(−)) mutant with V93K | A | 8 | >200 | – | – |
| KOD I142R/Y7A/P36R: KOD I142R (exo(−)) mutant with Y7A and P36R | A | 8 | >200 | – | – |
| KOD I142R/V93K: KOD I142R (exo(−)) mutant with V93K | A | 8 | >200 | – | – |
| KOD Y7A: modified DNA polymerase derived from Thermococcus kodakaraensis KOD1 with Y7A (protein, listed as Thermococcus kodakaraensis) MILDTDAITEDGKPVIRIFKKENGEFKIEYDRTFEPYFYALLKDDSAIEEVKKITAERHGTVVTVKRVEKVQKKFLGRPVEVWKLYFTHPQDVPAIRDKIREHPAVIDIYEYDIPFAKRYLIDKGLVPMEGDEELKMLAFDIETLYHEGEEFAEGPILMISYADEEGARVITWKNVDLPYVDVVSTEREMIKRFLRVVKEKDPDVLITYNGDNFDFAYLKKRCEKLGINFALGRDGSEPKIQRMGDRFAVEVKGRIHFDLYPVIRRTINLPTYTLEAVYEAVFGQPKEKVYAEEITTAWETGENLERVARYSMEDAKVTYELGKEFLPMEAQLSRLIGQSLWDVSRSSTGNLVEWFLLRKAYERNELAPNKPDEKELARRRQSYEGGYVKEPERGLWENIVYLDFRSLYPSIIITHNVSPDTLNREGCKEYDVAPQVGHRFCKDFPGFIPSLLGDLLEERQKIKKKMKATIDPIERKLLDYRQRAIKILANSYYGYYGYARARWYCKECAESVTAWGREYITMTIKEIEEKYGFKVIYSDTDGFFATIPGADAETVKKKAMEFLKYINAKLPGALELEYEGFYKRGFFVTKKKYAVIDEEGKITTRGLEIVRRDWSEIAKETQARVLEALLKDGDVEKAVRIVKEVTEKLSKYEVPPEKLVIHEQITRDLKDYKATGPHVAVAKRLAARGVKIRPGTVISYIVLKGSGRIGDRAIPFDEFDPTKHKYDAEYYIENQVLPAVERILRAFGYRKEDLRYQKTRQVGLSAWLKPKGT | C | 2 | 0.5 | not PCR-amplified | PCR products were confirmed |
| KOD P36H: modified KOD DNA polymerase with P36H (protein, listed as Thermococcus kodakaraensis) MILDTDYITEDGKPVIRIFKKENGEFKIEYDRTFEHYFYALLKDDSAIEEVKKITAERHGTVVTVKRVEKVQKKFLGRPVEVWKLYFTHPQDVPAIRDKIREHPAVIDIYEYDIPFAKRYLIDKGLVPMEGDEELKMLAFDIETLYHEGEEFAEGPILMISYADEEGARVITWKNVDLPYVDVVSTEREMIKRFLRVVKEKDPDVLITYNGDNFDFAYLKKRCEKLGINFALGRDGSEPKIQRMGDRFAVEVKGRIHFDLYPVIRRTINLPTYTLEAVYEAVFGQPKEKVYAEEITTAWETGENLERVARYSMEDAKVTYELGKEFLPMEAQLSRLIGQSLWDVSRSSTGNLVEWFLLRKAYERNELAPNKPDEKELARRRQSYEGGYVKEPERGLWENIVYLDFRSLYPSIIITHNVSPDTLNREGCKEYDVAPQVGHRFCKDFPGFIPSLLGDLLEERQKIKKKMKATIDPIERKLLDYRQRAIKILANSYYGYYGYARARWYCKECAESVTAWGREYITMTIKEIEEKYGFKVIYSDTDGFFATIPGADAETVKKKAMEFLKYINAKLPGALELEYEGFYKRGFFVTKKKYAVIDEEGKITTRGLEIVRRDWSEIAKETQARVLEALLKDGDVEKAVRIVKEVTEKLSKYEVPPEKLVIHEQITRDLKDYKATGPHVAVAKRLAARGVKIRPGTVISYIVLKGSGRIGDRAIPFDEFDPTKHKYDAEYYIENQVLPAVERILRAFGYRKEDLRYQKTRQVGLSAWLKPKGT | A | 5 | >200 | – | PCR products were confirmed |
